Reference: PubChem BioAssay (NCI)
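Results reflect a 48-hour exposure of cells in 96-well plates to compound at five concentrations. At the TGI there is no net growth.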

Tests used:
Test in all cases: NCI tumour cell line growth inhibition, 48 h
[1] = test system: HCC-2998 colon
[2] = test system: SF-295 CNS
[3] = test system: PC-3 prostate
[4] = test system: HCT-15 colon
[5] = test system: MOLT-4 leukemia
[6] = test system: SK-MEL-28 melanoma
[7] = test system: MCF7 breast
[8] = test system: U251 CNS
[9] = test system: SR leukemia
[10] = test system: CAKI-1 renal
[11] = test system: A549 NSCLC
[12] = test system: DU-145 prostate
[13] = test system: COLO 205 colon
[14] = test system: NCI-H522 lung
[15] = test system: ACHN renal
[16] = test system: RPMI-8226 leukemia

SMILES	TGI [1]	TGI [2]	TGI [3]	TGI [4]	TGI [5]	TGI [6]	TGI [7]	TGI [8]	TGI [9]	TGI [10]	TGI [11]	TGI [12]	TGI [13]	TGI [14]	TGI [15]	TGI [16]
CC[C@@]1(O)C(=O)OCc2c1cc1n(c2=O)Cc2c-1nc1ccccc1c2/C=N\NC(=O)C(C)N (stereo partly specified)	> 21.1 µM	8.14 µM	> 100 µM	> 100 µM	2.08 µM	> 100 µM	> 66.9 µM	31.6 µM	0.119 µM	2.57 µM	> 26.5 µM	0.398 µM	> 31.6 µM	25.8 µM	–	–
COC(=O)CCC(=O)c1ccc2c(c1)CC1(C2)Cc2ccc3c(c2C1)CCCC3=O (stereo unspecified)	> 93.9 µM	79.3 µM	> 79.9 µM	> 67.4 µM	18.2 µM	> 100 µM	69.9 µM	> 100 µM	8.05 µM	78.1 µM	> 100 µM	> 100 µM	> 67.6 µM	> 73.5 µM	> 70.2 µM	–
Cc1nc2c(ncn2CCO)c(=O)[nH]1	> 100 µM	> 100 µM	> 100 µM	> 100 µM	–	> 100 µM	> 100 µM	> 100 µM	> 100 µM	> 100 µM	> 100 µM	> 100 µM	> 100 µM	> 100 µM	> 100 µM	–
C[C@]12CCC(=O)C=C1CC[C@@H]1C2CC[C@]2(C)Nc3c(ncn3-c3ccc(F)cc3)CC12 (stereo partly specified)	88.8 µM	45.3 µM	> 100 µM	–	90.8 µM	> 100 µM	74 µM	95.9 µM	29.9 µM	> 100 µM	> 100 µM	> 100 µM	38.4 µM	55.1 µM	> 100 µM	–
CCOC(=O)C1(Cc2ccccc2)Cc2ccccc2C1=O (stereo unspecified)	> 100 µM	> 100 µM	> 100 µM	> 100 µM	57.5 µM	92.5 µM	> 100 µM	> 100 µM	78.2 µM	–	> 100 µM	> 100 µM	37.7 µM	–	> 100 µM	60.8 µM
Cc1n[nH]c(=O)n1N1C(=O)c2ccccc2C1=O	> 100 µM	> 100 µM	> 100 µM	> 100 µM	> 100 µM	> 100 µM	> 100 µM	> 100 µM	> 100 µM	> 100 µM	> 100 µM	> 100 µM	> 100 µM	–	> 100 µM	–
CC(=O)OC1COC(Nn2c(=O)[nH]c3ccccc3c2=O)C(OC(C)=O)C1OC(C)=O (stereo unspecified)	–	> 100 µM	> 100 µM	> 100 µM	> 100 µM	> 100 µM	> 100 µM	> 100 µM	> 100 µM	> 100 µM	> 100 µM	> 100 µM	> 100 µM	–	> 100 µM	> 100 µM
Cc1ccc(C)c(NC(=O)C(Cc2c[nH]c3ccccc23)NC(=O)OCc2ccccc2)c1 (stereo unspecified)	–	> 100 µM	28.6 µM	> 100 µM	19.6 µM	> 100 µM	> 100 µM	35.1 µM	48.2 µM	56.7 µM	26.1 µM	33.7 µM	46.1 µM	69.1 µM	> 100 µM	44 µM
CCCCP(CCCC)(CCCC)=C(C(=O)OC)C(C(=O)OC)=C1SC(C(=O)OC)=C(C(=O)OC)S1	–	36.3 µM	51 µM	96 µM	44.5 µM	29.8 µM	30.9 µM	29.5 µM	> 100 µM	–	40.1 µM	> 100 µM	45.5 µM	49.6 µM	54.3 µM	> 100 µM
CN1CCN(c2ccc(-n3cc(C(=O)O)c(=O)c4cc(F)c(N5CCN(C)CC5)cc43)nc2)CC1	–	> 100 µM	> 100 µM	> 100 µM	> 100 µM	> 100 µM	> 100 µM	> 100 µM	> 100 µM	> 100 µM	> 100 µM	> 100 µM	> 100 µM	> 100 µM	–	> 100 µM
CCCCCCCC/C=C/CCCCCCCC1CC(O)C(=O)O1 (stereo unspecified)	> 100 µM	> 100 µM	> 100 µM	> 100 µM	> 100 µM	> 100 µM	> 100 µM	> 100 µM	> 100 µM	–	> 100 µM	> 100 µM	> 100 µM	–	> 100 µM	76.7 µM
COc1cc(OC)nc(Nc2c(C#N)c3nc4ccccc4n3c3ccccc23)n1	> 100 µM	53 µM	> 100 µM	> 100 µM	> 100 µM	> 100 µM	> 100 µM	> 100 µM	–	> 100 µM	> 100 µM	> 100 µM	> 100 µM	64 µM	50.1 µM	> 100 µM
CCNc1ncnc2n[nH]nc12	> 100 µM	> 100 µM	> 100 µM	> 100 µM	> 100 µM	> 100 µM	> 100 µM	> 100 µM	–	> 100 µM	> 100 µM	> 100 µM	> 100 µM	> 100 µM	> 100 µM	> 100 µM
